Converted amounts (≈) assume the structure as drawn.

Among the test systems are Micrococcus luteus; Saccharomyces cerevisiae; Botrytis cinerea; Bacillus subtilis; Candida albicans; Escherichia coli; Klebsiella pneumoniae; Proteus mirabilis; Pseudomonas aeruginosa; Salmonella typhimurium; Serratia marcescens; Shigella dysenteriae; Bacillus megaterium Bm11; Staphylococcus capitis 1.
What all share (assay): ≥ marks a high value that may be exact or a test limit, other limits are often not marked, values filed in µg/mL are converted to µM
In test [1] the test system is Escherichia coli ATCC 25922.
Test [2] deals with Pseudomonas aeruginosa ATCC 15692.
In test [3] the test system is Staphylococcus aureus ATCC 25923.
For test [4], the system named is Candida albicans ATCC 10231.
Test [5] concerns Escherichia coli ATCC 11775.
The subject of test [6] is Staphylococcus aureus ATCC 12600.
Test [7] relates to Acinetobacter baumannii NM8.
In test [8] the test system is Candida albicans ATCC 90028.
For test [9], the system named is Escherichia coli ATCC 25726.
The subject of test [10] is Klebsiella pneumoniae ATCC 700603.
Test [11] concerns Pseudomonas aeruginosa ATCC 27853.
In test [12] the test system is Staphylococcus epidermidis RP62A/1.
For test [13], the system named is Staphylococcus epidermidis RP62A.
Test [14] deals with Stenotrophomonas maltophilia B32/4.
Test [15] relates to Staphylococcus aureus Cowan 1.
The test system of test [16] is Yersinia pseudotuberculosis YPIII.

As to `CC[C@H](C)[C@H](NC(=O)[C@H](CC(C)C)NC(=O)[C@H](CCCCN)NC(=O)[C@H](CO)NC(=O)[C@H](C)NC(=O)CNC(=O)[C@H](CCCCN)NC(=O)[C@H](CC(C)C)NC(=O)[C@H](C)NC(=O)[C@H](C)NC(=O)[C@H](CCCCN)NC(=O)[C@H](C)NC(=O)[C@H](CC(C)C)NC(=O)[C@H](CC(C)C)NC(=O)CNC(=O)[C@H](Cc1ccccc1)NC(=O)[C@@H](NC(=O)CN)C(C)C)C(=O)N1CCC[C@H]1C(=O)N[C@@H](Cc1cnc[nH]1)C(=O)N[C@@H](CC(C)C)C(=O)N[C@@H](CC(C)C)C(=O)N1CCC[C@H]1C(=O)N[C@@H](CO)C(=O)N[C@@H](CCCN=C(N)N)C(=O)N[C@@H](CCC(N)=O)C(=O)N[C@@H](CCC(N)=O)C(=O)O` [GVFGLLAKAALKGASKLIPHLLPSRQQ], the MIC in test [1] came to 1 µM (≈ 2.81 µg/mL); in the test on Micrococcus luteus it was 0.5 µM (≈ 1.41 µg/mL); in test [2], 5.66 µM (≈ 15.9 µg/mL); in the test on Saccharomyces cerevisiae, 16 µM (≈ 45 µg/mL); in [3] it was 1 µM (≈ 2.81 µg/mL).

Consider `CC[C@H](C)[C@H](NC(=O)[C@H](C)N)C(=O)N[C@@H](CC(N)=O)C(=O)N1CCC[C@H]1C(=O)N[C@@H](CCCCN)C(=O)N[C@@H](CO)C(=O)N[C@H](C(=O)N[C@@H](CCC(N)=O)C(=O)N[C@@H](CO)C(=O)N[C@@H](CC(C)C)C(=O)N[C@@H](CC(C)C)C(N)=O)C(C)C` [AINPKSVQSLL], for which the MIC against Botrytis cinerea is ≥ 200 µM; in test [4] it was > 200 µM; in test [5], ≥ 200 µM; in test [6], ≥ 200 µM.

`CC[C@H](C)[C@H](NC(=O)[C@@H]1CCCN1C(=O)[C@@H]1CCCN1C(=O)[C@@H](NC(=O)[C@H](Cc1cnc[nH]1)NC(=O)[C@@H](N)C(C)C)C(C)C)C(=O)N[C@H]1CSSC[C@@H](C(=O)N[C@@H](CCCN=C(N)N)C(=O)N[C@@H](CCCCN)C(=O)O)NC(=O)[C@H](CCC(=O)O)NC(=O)[C@H](CCCN=C(N)N)NC(=O)[C@H](Cc2cnc[nH]2)NC(=O)[C@H](CO)NC1=O` [VHVPPICSHRECRK]: the MIC with Botrytis cinerea was ≥ 200 µM; in test [4], > 200 µM; in test [5], ≥ 200 µM; in test [6], ≥ 200 µM.

For the compound `CC[C@H](C)[C@H](NC(=O)CN)C(=O)N[C@@H](Cc1ccccc1)C(=O)N[C@@H](CO)C(=O)N[C@@H](CCCCN)C(=O)N[C@@H](CC(C)C)C(=O)N[C@@H](C)C(=O)NCC(=O)N[C@@H](CCCCN)C(=O)N[C@@H](CCCCN)C(=O)N[C@H](C(=O)N[C@@H](CCCCN)C(=O)N[C@@H](CC(N)=O)C(=O)N[C@@H](CC(C)C)C(=O)N[C@@H](CC(C)C)C(=O)N[C@H](C(=O)N[C@@H](CO)C(=O)NCC(=O)N[C@@H](CC(C)C)C(=O)N[C@@H](CCCCN)C(=O)N[C@@H](CC(N)=O)C(=O)N[C@H](C(=O)NCC(=O)N[C@@H](CCCCN)C(=O)N[C@@H](CCC(=O)O)C(=O)N[C@H](C(=O)NCC(=O)N[C@@H](CCSC)C(=O)N[C@@H](CC(=O)O)C(=O)N[C@H](C(=O)N[C@H](C(=O)N[C@@H](CCCN=C(N)N)C(=O)N[C@H](C(=O)NCC(=O)N[C@H](C(=O)N[C@@H](CC(=O)O)C(=O)N[C@H](C(=O)N[C@@H](C)C(=O)NCC(=O)N[C@H]1CSSC[C@@H](C(=O)O)NC(=O)[C@H](CCC(=O)O)NC(=O)CNC(=O)[C@H](CCCCN)NC(=O)[C@H]([C@@H](C)CC)NC(=O)[C@H](CCCCN)NC1=O)[C@@H](C)CC)[C@@H](C)CC)[C@@H](C)O)C(C)C)C(C)C)C(C)C)[C@@H](C)CC)[C@@H](C)CC)[C@@H](C)CC` [GIFSKLAGKKIKNLLISGLKNIGKEVGMDVVRTGIDIAGCKIKGEC], the MIC against Bacillus subtilis was 1.31 µM (≈ 6.3 µg/mL); against Candida albicans it was 41.5 µM (≈ 200 µg/mL); against Escherichia coli, 5.19 µM (≈ 25 µg/mL); in the test on Klebsiella pneumoniae, 2.6 µM (≈ 12.5 µg/mL); with Micrococcus luteus it was 1.31 µM (≈ 6.3 µg/mL); in the test on Proteus mirabilis, ≥ 41.5 µM. Further, the minimal inhibitory concentration (MIC) against Pseudomonas aeruginosa was 5.19 µM (≈ 25 µg/mL); with Salmonella typhimurium, 5.19 µM (≈ 25 µg/mL); against Serratia marcescens, ≥ 41.5 µM; against Shigella dysenteriae it was 2.6 µM (≈ 12.5 µg/mL).

On to `CC[C@H](C)[C@H](N)C(=O)N[C@@H](CC(C)C)C(=O)NCC(=O)N[C@@H](CCCCN)C(=O)N[C@@H](CC(C)C)C(=O)N[C@@H](CC(C)C)C(=O)N[C@@H](CO)C(=O)N[C@H](C(=O)N[C@@H](C)C(=O)N[C@@H](C)C(=O)NCC(=O)N[C@@H](CC(C)C)C(=O)N[C@@H](CC(C)C)C(=O)N[C@@H](CO)C(=O)N[C@@H](CC(N)=O)C(=O)N[C@@H](CC(C)C)C(N)=O)[C@@H](C)O` [ILGKLLSTAAGLLSNL], for which the MIC in test [7] was ≥ 64 µM; in test [8] it was ≥ 64 µM; in test [9] it was ≥ 256 µM; in test [1] it was 150 µM (≈ 237 µg/mL); in [10], 256 µM (≈ 405 µg/mL); in test [11], 256 µM (≈ 405 µg/mL). For the same compound, the MIC in [3] is 50 µM (≈ 79.1 µg/mL); in [12], ≥ 32 µM; in test [13] it was ≥ 64 µM; in test [14], ≥ 128 µM.

On to `CC[C@H](C)[C@H](N)C(=O)N[C@@H](CC(C)C)C(=O)NCC(=O)N[C@@H](CCCCN)C(=O)N[C@@H](CC(C)C)C(=O)N[C@@H](CC(C)C)C(=O)N[C@@H](CO)C(=O)N[C@H](C(=O)N[C@@H](C)C(=O)N[C@@H](C)C(=O)NCC(=O)N[C@@H](CC(C)C)C(=O)N[C@@H](CC(C)C)C(=O)N[C@@H](CCCCN)C(=O)N[C@@H](CC(N)=O)C(=O)N[C@@H](CC(C)C)C(N)=O)[C@@H](C)O` [ILGKLLSTAAGLLKNL], for which the MIC in test [7] is ≥ 32 µM; in [8] it was ≥ 32 µM; in [9], ≥ 32 µM; in test [10], 128 µM (≈ 208 µg/mL); in [11] it was 128 µM (≈ 208 µg/mL); in test [3], 16 µM (≈ 26 µg/mL). The minimal inhibitory concentration (MIC) was 8 µM (≈ 13 µg/mL) in test [12], 16 µM (≈ 26 µg/mL) in test [13] and ≥ 64 µM in test [14].

`CC[C@H](C)[C@H](NC(=O)CNC(=O)[C@H](CO)NC(=O)[C@H](CC(C)C)NC(=O)[C@@H](NC(=O)[C@H](CCCN=C(N)N)NC(=O)CNC(=O)[C@H](C)NC(=O)[C@H](CC(C)C)NC(=O)[C@@H]1CCCN1C(=O)[C@H](CC(C)C)NC(=O)[C@@H](N)Cc1ccccc1)C(C)C)C(=O)N[C@@H](CC(C)C)C(N)=O` [FLPLAGRVLSGIL]: the MIC with Bacillus megaterium Bm11 is 20 µM (≈ 27.1 µg/mL); in [4] it was 20 µM (≈ 27.1 µg/mL); in [1] it was > 40 µM; in test [15], ≥ 40 µM; against Staphylococcus capitis 1 it was ≥ 40 µM; in test [16] it was ≥ 40 µM.

For `CC[C@H](C)[C@H](NC(=O)CNC(=O)[C@H](CO)NC(=O)[C@H](CC(C)C)NC(=O)[C@@H](NC(=O)[C@H](C)NC(=O)CNC(=O)[C@@H](NC(=O)[C@H](CC(C)C)NC(=O)[C@@H]1CCCN1C(=O)[C@H](CC(C)C)NC(=O)[C@@H](N)Cc1ccccc1)[C@@H](C)CC)C(C)C)C(=O)N[C@@H](CC(C)C)C(N)=O` [FLPLIGAVLSGIL], the minimum inhibitory concentration (MIC) was ≥ 40 µM against Bacillus megaterium Bm11; > 40 µM in [4]; > 40 µM in test [1]; ≥ 40 µM in [15]; ≥ 40 µM against Staphylococcus capitis 1; ≥ 40 µM in [16].

These data come from DBAASP.
